Source: article PMC9409043, “Serotonin 5-HT6 Receptor Ligands and Butyrylcholinesterase Inhibitors Displaying Antioxidant Activity—Design, Synthesis and Biological Evaluation of Multifunctional Agents against Alzheimer’s Disease” (International Journal of Molecular Sciences, 2022)

Columns and labels:
[1] = Metabolic stability in human liver microsomes; type: in vitro ADME
Experimental: Metabolic stability. […] For detailed results, including UPLC chromatograms and MS spectra, see the Supporting information (Figures S1–S16).
The metabolic stability was evaluated by incubation of compounds with human liver microsomes (Sigma-Aldrich, St. Louis, MO, USA) in 10 mM Tris–HCl buffer (pH 7.4) at 37 °C for 120 min in the presence of NADPH Regeneration System (Promega, Madison, WI, USA). The percentage of the remaining substrate and the most probable metabolic pathways were estimated by UPLC-MS analyses of the reaction mixtures.

[2] = tested on: HepG2 (human hepatocellular carcinoma) cells; test: Hepatotoxicity, MTS cell viability test; type: cell-based; conditions: 72 h
Experimental: Hepatotoxicity. To further investigate the safety of the compounds, we determined their hepatotoxicity. We used the MTS test that determines cell viability to assess the effect of compounds 14, 16 and 19 on HepG2 (human hepatocellular carcinoma) cells. The compounds were tested at 1, 10, 50 and 100 μM, and cytostatic drug doxorubicin (DX) at 1 μM was used as a reference compound. […]. The HepG2 (ATCC® HB-8065™) cell line was cultivated according to the procedure provided by ATCC. The tested compounds were incubated with cells for 72 h in the following concentrations: 1, 10, 50 and 100 μM. To evaluate the cells’ viability, CellTiter 96® AQueous Non-Radioactive Cell Proliferation Assay (MTS, Promega®, Madison, WI, USA) was performed. The antiproliferative drug doxorubicin was used as a positive control at the concentration of 1 µM. For determination of the IC50 value for compound 14, additional study was performed. The tested compound was incubated with the HepG2 cells for 72 h in the following nine concentrations: 0.001, 0.01, 0.1, 1, 5, 10, 25, 50 and 100 μM. The cells’ viability was estimated by MTS test. IC50 was calculated by Graph Pad Prism 8.0.1 software.

[3] = Metabolic stability in mouse liver microsomes; type: in vitro ADME; conditions: 2 h, pH 7.4
CYP2D6 = molecular target: T1, CYP2D6 (Homo sapiens, UniProt P10635); test: CYP P450-Glo luminescence assay, CYP2D6; type: in vitro ADME; conditions: human, CYP2D6 enzyme in the luminescent P450-Glo assay (Promega); 0.1 µM
T1 construct: purchased Promega, Madison, WI, USA
T1 sequence (P10635 whole entry): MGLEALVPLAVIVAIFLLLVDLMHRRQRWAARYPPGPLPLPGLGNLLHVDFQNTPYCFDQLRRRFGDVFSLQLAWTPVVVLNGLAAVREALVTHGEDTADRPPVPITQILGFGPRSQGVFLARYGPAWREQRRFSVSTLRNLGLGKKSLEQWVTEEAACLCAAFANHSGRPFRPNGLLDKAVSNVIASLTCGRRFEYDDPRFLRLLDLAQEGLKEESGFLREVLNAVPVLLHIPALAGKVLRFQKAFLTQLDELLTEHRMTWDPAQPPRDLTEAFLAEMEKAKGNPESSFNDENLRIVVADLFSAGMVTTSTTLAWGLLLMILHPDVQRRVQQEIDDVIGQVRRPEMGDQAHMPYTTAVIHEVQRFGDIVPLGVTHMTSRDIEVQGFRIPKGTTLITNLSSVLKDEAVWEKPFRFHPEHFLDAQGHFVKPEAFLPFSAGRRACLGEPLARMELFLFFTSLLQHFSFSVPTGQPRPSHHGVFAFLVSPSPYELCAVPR
From the text: Influence on CYP3A4 and CYP2D6 activity. Possible drug–drug interactions (DDIs) are an important issue for elderly patients, who are usually on multiple medications. They may result, among other things, from the interactions (inhibition or activation) of the cytochrome P450 isoenzymes, especially CYP3A4 and CYP2D6, which play the most significant role in drugs’ biotransformation. Therefore, to predict the potential influence of the studied compounds (14, 16 and 19) on the metabolism of other drugs, we used the CYP450 inhibition luminescence assay (Promega). […]. […] […]. […] […].
The influence on CYP 3A4 and 2D6 activity was estimated by respective luminescent CYP P450-Glo™ assay (Promega®, Madison, WI, USA). The compounds were tested in the concentration range of 0.1–25 µM. The results were compared to the respective reference CYP inhibitors: ketoconazole and quinidine.

[4] = Metal-chelating properties, spectrophotometric; conditions: 50 µM ligand and Fe^2+, 250–400 nm
From the text: Metal-chelating properties. The homeostasis of metal ions in the brain is one of the important factors that determine its proper functioning. Disturbed levels of metal ions can lead to overproduction and aggregation of amyloid beta tau proteins and an increase in oxygen radicals production, leading to a degeneration of neurons observed in AD [55]. Additionally, it was observed that iron accumulation in microglia triggers a cascade of events leading to the production of a more sustained inflammatory response with increased reactive oxygen species (ROS) production and increased glycolysis. Adjusting the balance of metal ions by supplementing or chelating may be beneficial in alleviating AD pathology. Thus, we tested the metal-chelating properties of compounds 12–19 against 10 metal ions, recognised as potentially involved in AD. The formation of ligand–ion (Al^3+, Ca^2+, Co^2+, Cu^2+, Fe^2+, Fe^3+, Mg^2+, Ni^2+, Pb^2+ or Zn^2+) complexes was measured spectrophotometrically (250–400 nm with 4 nm interval) at 50 µM concentrations of both, according to the protocol reported previously. Metal-chelating ability was calculated as a shift of absorbance between the absorbance of the ligand–ion mixture and the sum of the absorbance of the ligand and ion separately. […]

O=S(=O)(c1ccccc1)n1ccc2c(OCCNCCCC3CCN(Cc4ccccc4)CC3)cccc21 [Compound 14, 3-(1-Benzylpiperidin-4-yl)-N-(2-((1-(phenylsulfonyl)-1H-indol-4-yl)oxy)ethyl)propan-1-amine]
main metabolic pathway [1]: oxidative deamination | HLMs % Left ([1]; human, 2 h, pH 7.4): 84.69% | IC50 ([2]; Homo sapiens, HepG2, MTS test): 2160 nM | fold HepG2 IC50 over Ki for 5-HT6R and IC50 for hBuChE (safety margin) ([2]; human): at least 98 fold | MLMs % Left [3]: 75.54% | inhibition at 0.1 µM (CYP2D6): ~20%

O=S(=O)(c1ccccc1)N1CCc2c(OCCNCC3CCN(Cc4ccccc4)CC3)cccc21 [Compound 15, N-((1-Benzylpiperidin-4-yl)methyl)-2-((1-(phenylsulfonyl)indolin-4-yl)oxy)ethan-1-amine]
Fe^2+ chelating properties (shift of absorbance) [4]: Fe^2+ ions chelators

O=c1[nH]c2c(OCCNCCC3CCN(Cc4ccccc4)CC3)cccc2n1Cc1ccccc1 [Compound 18, 1-Benzyl-4-(2-((2-(1-benzylpiperidin-4-yl)ethyl)amino)ethoxy)-1,3-dihydro-2H-benzo[d]imidazol-2-one]
Fe^2+ chelating properties (shift of absorbance) [4]: Fe^2+ ions chelators
